# Results taken from US20250312336A1, “Compositions And Methods For Treating Cancer With Calcium Channel Inhibitors” (Institute for Cancer Research d/b/a The Research Institute …, priority 2024, published 2025).
# Entries after “also recorded” stand apart in the source; their conditions may differ.
# B1: annexin V: PtdSer binding recombinant annexin V, label-free (protein, UniProt P08758 2-320, looked up)
# Annexin A5: AQVLRGTVTDFPGFDERADAETLRKAMKGLGTDEESILTLLTSRSNAQRQEISAAFKTLFGRDLLDDLKSELTGKFEKLIVALMKPSRLYDAYELKHALKGAGTNEKVLTEIIASRTPEELRAIKQVYEEEYGSSLEDDVVGDTSGYYQRMLVVLLQANRDPDAGIDEAQVEQDAQALFQAGELKWGTDEEKFITIFGTRSVSHLRKVFDKYMTISGFQIEETIDRETSGNLEQLLLAVVKSIRSIPAYLAETLYYAMKGAGTDDHTLIRVMVSRSEIDLFNIRKEFRKNFATSLYSMIKGDTSGDYKKALLLLCGEDD
# Key:
# OT-1 CTLs = experiment: Trogocytosis assay of DiD-labeled CAFs co-cultured with OT-1 CTLs; assay type: cell-based, mouse; settings: for Transfer of DiD (CAF PM uptake) from CAFs to OT-1 CTLs: 12 h co-culture, niclosamide 1 μM, clofazimine 1 μM, anti-TIM3 Ab 4 μg/ml, 25-hydroxycholesterol 4 μM
# Experimental: For trogocytosis between OT-1 and CAF cells, T cells were isolated from splenocytes of OTI mice (strain 021880, The Jackson Laboratory) and stimulated with OVA257-264 (1 μg/ml) for 24 hours as described.
# Cholesterol abundance in cell membranes was determined with Cholesterol Detection Assay Kit (Cayman, cat #10009779). Dissociated cells were fixed with fixative solution for 10 minutes, washed and labeled with Filipin III as per the manufacturer's instructions. Labeling with Filipin III was done by incubating in the dark for 30 minutes. After two washes for 5 minutes each, labeling was analyzed by flow cytometry (excitation: 340-380, emission: 385-470). The IFN-γ, Granzyme B and Foxp3 were detected using Foxp3/Transcription Factor Staining Buffer (00-5523-00, Thermo Fisher Scientific). Cells were stained for cell surface markers at 4° C. for 30 min followed by fixation and permeabilization buffer for 30 mins and two washes with permeabilization buffer and incubation with the indicated antibodies for 30 mins, washed with PBS twice followed by flow cytometry analysis.
# ANO6 [1] = biological target: T1, ANO6 (Homo sapiens, UniProt Q4KMQ2); experiment: PtdSer externalization (annexin XII) in CAFs co-cultured with DsRed-tagged Panc-1 cells; assay type: cell-based; set-up: this increase was observed only in control CAFs (ANO6-proficient) engaged in physical contacts with DsRed-tagged Panc-1 cells; endogenous in cells; host or cells: human CAFs in co-culture with DsRed-tagged Panc-1 cells; settings: BTP2 10 μM; clofazimine 1 μM; niclosamide
# T1 sequence (Q4KMQ2 1-910): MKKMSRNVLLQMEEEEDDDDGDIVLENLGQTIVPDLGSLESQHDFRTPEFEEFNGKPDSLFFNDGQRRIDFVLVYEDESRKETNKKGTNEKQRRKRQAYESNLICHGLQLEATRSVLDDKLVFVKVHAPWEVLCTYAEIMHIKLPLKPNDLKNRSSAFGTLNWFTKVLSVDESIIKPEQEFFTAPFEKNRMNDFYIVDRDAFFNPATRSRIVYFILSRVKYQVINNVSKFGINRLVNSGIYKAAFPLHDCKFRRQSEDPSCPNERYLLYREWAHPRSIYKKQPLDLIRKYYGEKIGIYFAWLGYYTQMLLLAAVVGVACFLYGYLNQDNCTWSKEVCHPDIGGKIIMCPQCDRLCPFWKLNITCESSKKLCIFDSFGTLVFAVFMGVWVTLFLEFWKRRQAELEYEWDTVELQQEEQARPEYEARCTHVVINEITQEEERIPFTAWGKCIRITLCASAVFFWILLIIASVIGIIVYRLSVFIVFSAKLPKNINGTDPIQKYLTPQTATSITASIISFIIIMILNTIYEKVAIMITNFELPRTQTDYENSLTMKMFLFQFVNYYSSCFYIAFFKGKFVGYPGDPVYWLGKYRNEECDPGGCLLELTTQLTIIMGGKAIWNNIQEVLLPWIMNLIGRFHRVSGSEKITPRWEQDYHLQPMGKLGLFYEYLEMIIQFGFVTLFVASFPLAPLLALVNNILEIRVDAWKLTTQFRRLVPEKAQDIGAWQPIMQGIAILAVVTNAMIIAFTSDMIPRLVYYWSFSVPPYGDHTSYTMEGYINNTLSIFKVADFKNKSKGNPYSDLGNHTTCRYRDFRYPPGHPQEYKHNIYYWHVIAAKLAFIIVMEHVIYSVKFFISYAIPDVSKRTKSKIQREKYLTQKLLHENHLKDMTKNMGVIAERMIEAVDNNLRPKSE
# Experimental: (§1) CAFs were seeded in 24-well glass bottom plates (cat. #81156, Ibidi, Fitchburg, WI) at a density of 20,000 cells per well. Cells were then treated with niclosamide (1 μM) for 2 h. After one wash with FBS-free media at RT, cells were incubated with 250 μl of 1:100 annexin XII and 1:200 propidium iodide (pSIVA Abcam #ab129817), with or without 10 μM ionomycin. Cells were then incubated (5 min 37C) and imaged by fluorescence microscopy using a Nikon A1 camera (Nikon) linked to a Nikon Eclipse Ti2-E Inverted Microscope Imaging System (Nikon) for each channel. Fifteen images per well were acquired.
# [2] = tested on: store-operated calcium entry (SOCE) in CAFs; experiment: Cytosolic calcium (Fluo4) in CAFs co-cultured with Panc-1 cells; assay type: cell-based, human; settings: indicated concentrations of inhibitors, Fluo4 measured 5 minutes after addition
# Experimental: CAF (5×10^3) and PDAC ([…]) cells were incubated (separately or in co-culture) on coverslips for 12 hrs before loading with the calcium indicator Fluo4-AM (5 μM; Invitrogen, Eugene, OR) in DMEM supplemented with HEPES and 0.5% FBS and incubated at 37° C., 5% CO2 for 30 min. Cells were washed in DMEM before incubating for an additional 30 minutes at 37° C., 5% CO2 to permit de-esterification of the dye. Fluorescence emissions at 506 nm in response to excitation at 494 nm were monitored for 60 cycles at a frequency of 0.33 Hz using a Leica SP8 laser scanning microscope (Buffalo Grove, IL) at 37° C. with 5% CO2. Intracellular Ca2+measurements are shown as absolute fluorescence obtained from 35-45 cells obtained using Leica LASX software. Averaged results±SEM from at least three independent experiments were analyzed by one-way ANOVA with GraphPad Prism. […]
# CAF (5×10^3) cells were incubated on coverslips for 12 hrs before loading with the calcium indicator Fura2-AM (2 μM; Invitrogen, Eugene, OR) in cation-safe solution (107 mM NaCl, 7.2 mM KCl, 1.2 mM MgCl2, 11.5 mM glucose, 20 mM Hepes-NaOH, 1 mM CaCl2, pH 7.2) for 30 min at 24° C. as previously described. Cells were washed, and dye was allowed to de-esterify for a minimum of 30 min at 24° C. Cells were treated with Vehicle control, […] CM462, or 1 μM BTP2 along with 2 μM Thapsigargin for 10 minutes. After Ca2+ levels returned to their baseline, 1 mM Ca2+ was added. Ca2+ measurements were made using a Leica DMI 6000B fluorescence microscope controlled by Slidebook Software (Intelligent Imaging Innovations; Denver, CO). Fluorescence emission at 505 nm was monitored while alternating between 340 and 380 nm excitation wavelengths at a frequency of 0.67 Hz; intracellular Ca2+ measurements are shown as 340/380 nm ratios obtained from groups (20-25) of single cells.
# PDAC cells = experiment: Trogocytosis of CAF membranes by PDAC cells with cytoskeleton inhibitors; assay type: cell-based; settings: cytoskeleton (actin polymerization) inhibitors
# Experimental: (§2) To label cellular membranes, pairs of lipophilic fluorescent dyes were used according to the manufacturer's instructions in the following combinations: 1) adherent CAFs were stained with 1 μM PKH67 (Sigma-Aldrich), Panc-1 were stained in suspension with 10 μM CellTracker™ orange CMCMR (Thermo Fisher Scientific); 2) CAFs labeled with 0.5 μM BODIPY-cholesterol (Topfluor Cholesterol, #DO-016545, Avanti Polar Lipids) dissolved in 0.1 mM methyl-beta-cyclodextrin (#C4555, Sigma) with 2 μM cholesterol (#C8667, Sigma-Aldrich) in MEM media at 37° C. for 30 min in suspension; murine or human (Panc-1) PDAC cells were stained in suspension with CPD670 (#65-0840-85, Thermo Fisher Scientific). After labeling, CAFs were co-incubated for the indicated time intervals with PDAC cells in 12-well culture plates at ratio of 2:1 in 0.5% DMEM media. Co-cultures of CAFs and PDAC cells for 3 minutes on ice minutes were used as negative controls. In experiments assessing the effect of extracellular calcium on trogocytosis, cells were co-cultured in Phosphate Buffered Saline (PBS) containing calcium and magnesium (D8662, Sigma-Aldrich) or in PBS without calcium and magnesium (D8537, Sigma-Aldrich). After co-cultures, cells were collected and pelleted by centrifugation (5 min, 1500 rpm), resuspended in 10% formalin (Sigma) for 10 min at RT, washed and re-suspended in PBS/1% BSA. Trogocytosis was measured as the acquisition of CAF-specific fluorescence in PDAC cells by flow cytometry on MACSQuant® VYB Flow Cytometer (Miltenyi Biotec) or FACScan analyzer (BD Biosciences). Analysis of dual staining was done using FlowJo software (10.8.1, BD Biosciences). Live cells were gated based on FSC/SSC parameters, then single cells were gated based on SSC-A/SSC-H.
# Panc-1 cells = experiment: Trogocytosis of PKH67-labeled CAF membranes by Panc-1 cells in co-culture (flow cytometry); assay type: cell-based, human; settings: 3 mM EGTA, mean fluorescence intensity normalized to vehicle
# Experimental: as §2, with “After co-cultures, cells were collected and pelleted by centrifugation (5 min, 1500 rpm), resuspended in 10% formalin (Sigma) for 10 min at RT, washed and re-suspended in PBS/1% BSA.” left out, “Analysis of dual staining was done using FlowJo software (10.8.1, BD Biosciences). Live cells were gated based on FSC/SSC parameters, then single cells were gated based on SSC-A/SSC-H.” left out
# ANO6 [3] = biological target: T1, ANO6; experiment: Phosphatidylserine externalization assay in CAFs pulsed with ionomycin (annexin XII); assay type: cell-based; set-up: endogenous in cells; host or cells: human patient-derived, hTERT-immortalized pancreatic cancer-associated fibroblasts (CAFs)
# Experimental: as §1
# KPCN349 cells = experiment: Trogocytosis of BODIPY-cholesterol labeled CAF membranes by KPCN349 cells with PtdSer masking; assay type: cell-based, murine; settings: 100 nM Annexin-V or 100 nM Zn-DPA; CAFs pre-treated 2 h, maintained in co-culture
# Experimental: as §2, with “After co-cultures, cells were collected and pelleted by centrifugation (5 min, 1500 rpm), resuspended in 10% formalin (Sigma) for 10 min at RT, washed and re-suspended in PBS/1% BSA.” left out, “Analysis of dual staining was done using FlowJo software (10.8.1, BD Biosciences). Live cells were gated based on FSC/SSC parameters, then single cells were gated based on SSC-A/SSC-H.” left out
molecule,measurement,setting,value
C[C@H](CCCC(C)(C)O)[C@H]1CC[C@H]2[C@@H]3CC=C4C[C@@H](O)CC[C@]4(C)[C@H]3CC[C@]12C [25-hydroxycholesterol],Ability of CAFs to inhibit IFN-γ production by the CTLs,OT-1 CTLs; 12 h co-culture with CAFs,reduced the ability of CAFs to inhibit IFN-γ production
same,Transfer of DiD (CAF PM uptake) from CAFs to OT-1 CTLs,OT-1 CTLs,effectively inhibited the transfer of DiD
Cc1nnsc1C(=O)Nc1ccc(-n2nc(C(F)(F)F)cc2C(F)(F)F)cc1 [BTP2],PtdSer externalization (annexin XII) in CAFs co-cultured with Panc-1 cells,ANO6 [1],suppressed PtdSer externalization; also recorded: blocked
same,Cytosolic Ca2+ elevation (Fluo4 signal) in CAFs engaged in cell-cell contacts with PDAC (Panc-1) cells,[2],effectively blocked cytosolic Ca2+ elevation; also recorded: abrogated Fluo4 fluorescent signal
C=C1[C@@H](C)[C@H]2[C@H](Cc3ccccc3)NC(=O)[C@]23[C@H](OC(C)=O)/C=C/[C@@](C)(O)C(=O)[C@@H](C)C/C=C/[C@H]3[C@@H]1O [Cytochalasin D],Uptake of CAF PMs by PDAC cells,PDAC cells,suppressed uptake of CAF PMs
same,Uptake of CAF PMs by PDAC cells,PDAC cells; listed as cytochalasin D,partially suppressed
O=C(N/N=C/c1ccc(O)c(O)c1)c1cc2ccccc2cc1O [Dynasore],Trogocytosis of CAF membranes / uptake of membrane lipids from human CAFs by Panc-1 cells,Panc-1 cells; listed as dynasore,did not affect the uptake
O=C(O)CN(CCOCCOCCN(CC(=O)O)CC(=O)O)CC(=O)O [EGTA],PtdSer externalization in CAFs with extracellular calcium chelator,"ANO6 [3]; 1 μM ionomycin 5 minutes, 2 mM EGTA, annexin XII",blocked
same,Trogocytosis of CAF membranes / uptake of membrane lipids from human CAFs by Panc-1 cells,Panc-1 cells,inhibited
C/C1=C/C(=O)O[C@@H]2C[C@@H](CC[C@H](C)/C=C\CC1)O[C@@](O)([C@@H]1CSC(=O)N1)C2 [Latrunculin B],Uptake of CAF PMs by PDAC cells,PDAC cells,suppressed uptake of CAF PMs
COc1ccc2c(c1)CC[C@@H]1[C@@H]2CC[C@]2(C)[C@@H](NCCCCCCN3C(=O)C=CC3=O)CC[C@@H]12 [U73122],Cytosolic Ca2+ elevation (Fluo4 signal) in CAFs engaged in cell-cell contacts with PDAC (Panc-1) cells,[2],no effect on Fluo4 signal
C[C@H](CCC(=O)O)C[C@H](C)C[C@H](C)C(=O)/C=C(\O)[C@H](C)C[C@H](C)C/C=C/[C@@H](C)[C@@H](O)[C@@H](C)[C@@H](O)C[C@@H]1CC[C@@](C)([C@H]2CC[C@@](C)([C@@H](C)O)O2)O1 [ionomycin],Cytoplasmic calcium in control CAFs,ANO6 [3]; calcium ionophore treatment,increased cytoplasmic calcium
same,PtdSer externalization to the PM in control CAFs,ANO6 [3]; calcium ionophore treatment,led these cells to externalize PtdSer
Cc1cccc(F)c1C(=O)Nc1cnc(-c2cc3c(cc2Cl)OC(F)(F)O3)cn1 [zegocractin],Cytosolic Ca2+ elevation (Fluo4 signal) in CAFs engaged in cell-cell contacts with PDAC (Panc-1) cells,[2],abrogated Fluo4 fluorescent signal
same,Cytosolic Ca2+ elevation (Fluo4 signal) in CAFs engaged in cell-cell contacts with PDAC (Panc-1) cells,[2]; listed as zegocratin,effectively blocked cytosolic Ca2+ elevation
bis-Zn-dipicolylamine [Zn-DPA],Uptake of BODIPY-labeled CAF membranes by KPCN349 cells,KPCN349 cells,significantly reduced uptake; also recorded: antagonizes trogocytosis
lantrinculin A,Uptake of CAF PMs by PDAC cells,PDAC cells,partially suppressed
B1,Uptake of BODIPY-labeled CAF membranes by KPCN349 cells,KPCN349 cells,significantly reduced uptake; also recorded: antagonizes trogocytosis
same,Transfer of DiD (CAF PM uptake) from CAFs to OT-1 CTLs,OT-1 CTLs,significantly reduced CAF PM uptake
